Experimental data from US20240307349A1, “METHODS FOR THE PREPARATION AND DOSE REGIMENS FOR USE OF SSTR4 AGONISTS AND SALTS THEREOF” (priority 2023, published 2024).

Tests used:
Assay type in all cases: in vivo, human
[1] = Phase 1 study LXBB, single-dose pharmacokinetics in healthy subjects
Procedure: A total of 116 healthy subjects received at least one dose of Example 5 in phase 1 studies LXBB and LXBA.
The single-dose pharmacokinetics (PK) of Example 5 were evaluated at a dose range of from 20 to 400 mg.
(§1) Phase 1 Study LXBB was a first-in-human single-ascending dose/multiple-ascending dose (SAD/MAD) study in 89 healthy subjects (TABLE 1). […] One subject was discontinued due to the nondrug-related AE of pyrexia. In the SAD study, 1 subject each reported AEs of temporomandibular joint syndrome and tension headache. In the food effect study, 1 subject reported dry eye and nausea. In the Younger Group 10-day multiple-dose exposure study, the most commonly reported AEs were headache (2 subjects), diarrhea (2 subjects), nausea, rhinitis, and orthostatic hypotension (1 subject each). In the Elderly Group 10-day multiple-dose exposure study, the most commonly reported AEs were headache (5 subjects), pain in extremity (1 subject), vessel puncture site bruise (1 subject), dizziness (1 subject), and orthostatic hypotension (1 subject).

[2] = tested on: participants with OA in the knee; assay: H0P-MC-OA03 Phase 2 placebo-controlled trial, osteoarthritis pain
Source text: The purpose of this study was to test whether Example 5 is efficacious in relieving osteoarthritis (OA) pain in the knee. Data was also collected to assess the safety and tolerability of Example 5 in this study population and previously discussed. Pharmacokinetic properties and pharmacodynamic effects were also be explored. The totality of data from this proof-of-concept study assessed the benefits and risks associated with Example 5.
OA03 was an 8-week, Phase 2, randomized, double-blind, placebo-controlled study that compared Example 5 versus placebo in participants with OA in the knee.
The primary clinical question of interest was “What is the treatment difference between Example 5 and placebo assessed using mean change from baseline to endpoint (Week 8) for average pain intensity (API) as measured using the numeric rating scale (NRS) in participants with OA of the knee regardless of initiation of rescue medication or other allowed concomitant medication and assuming that they would have continued initially randomized treatment condition?”
The key secondary clinical question of interest was: “What is the treatment difference between Example 5 and placebo assessed using mean change from baseline to endpoint (Week 8) for pain as measured by the WOMAC® (Western Ontario and McMaster Universities Arthritis Index) pain subscale in participants with OA of the knee regardless of initiation of rescue medication or other allowed concomitant medication and assuming that they would have continued initially randomized treatment condition?”
Participants were randomly assigned in the ratio of 2:1 to Example 5 or placebo. Based on tolerability, participants could take up to a maximum of 3 capsules orally (each capsule was 200 mg), twice daily (BID), approximately every 12 hours, for a total dose of 600 mg.
The protocol was amended to include a titration to the target dose of 600 mg. Investigators could reduce the dose from 600 to 400 mg after discussion with the participant due to tolerability as long as the change occurred before the end of Visit 4, that is, study Week 2. The medical monitor was contacted as needed.

patients = assay: Pooled safety analysis of Phase 2 studies OA03, BP03 and NP03; settings: 200 mg to 600 mg
Procedure: For each of these studies, further analyses were performed to identify TEAEs related to CV, thyroid, and abnormal renal function. CV AEs were identified using prespecified standardized MedDRA queries/preferred terms (SMQs/PTs) for cardiac arrhythmia, hypotension, major adverse cardiovascular event, and congestive heart failure. Thyroid-related AEs were identified with the ‘Hypothyroidism’ (SMQ), and AEs associated with abnormal renal function were identified with the high-level terms (HLTs) renal failure and impairment and select PTs.
Safety data from the 3 pooled intervention-specific appendix (ISAs), OA03, BP03, and NP03 were analyzed for the following safety topics of interest.
Thus, after the treatment of a total 282 patients that were administered from 200 mg to 600 mg of Example 5 in the 3 phase 2 studies, an adequate safety profile was established. While the safety of the 3 phase 2 studies were discussed together, the efficacy results for each study will be discussed herein.

healthy subjects [3] = assay: Phase 1 study LXBA, safety and tolerability in healthy subjects
Source text: (§2) The safety and tolerability of Example 5, were initially based on the 2 completed Phase 1 studies (LXBB and LXBA) and later confirmed with 3 completed Phase 2 studies (OA03, BP03, and NP03, as disclosed below).
Study LXBA is a completed study and consisted of 2 parts, Part A and Part B (TABLE 1). Part A of the study had 18 healthy subjects in 3 dosing cohorts, and Part B had 9 healthy subjects exposed to Example 5. […] In Part A, all treatment-emergent adverse events (TEAEs) were mild in severity except for 1 moderate event of presyncope. Constipation and insomnia (2 events each) were the only TEAEs reported in >1 subject. In Part B, the reported TEAEs were dysgeusia, nausea, and vomiting, which were all mild in severity.

healthy subjects [4] = assay: Phase 1 study LXBB (SAD/MAD), safety and tolerability in healthy subjects
Source text: as §2, §1
The mean PR interval increase from baseline was 13 msec in subjects receiving single 400-mg dose (SAD); the highest PR interval change from baseline in an individual subject was 45 msec (after the 300-mg dose in MAD).

Cc1cccnc1OCC(C)(C)NC(=O)[C@H]1[C@@H]2CNC[C@@H]21.O=C(O)C(O)C(O)C(=O)O [Example 5, (1R,5S,6r)-N-(2-Methyl-1-((3-methylpyridin-2-yl)oxy)propan-2-yl)-3-azabicyclo[3.1.0]hexane-6-carboxamide L-tartrate sesquihydrate]
Tmax ([1]; human, in vivo): 2 to 3 h | CL renal ([1]; human, in vivo, single dose, 20 to 400 mg, read-out: Renal clearance (converted)): ~167 mL/min | half-life ([1]; human, in vivo, single dose, 20 to 400 mg, read-out: mean terminal half-life (t1/2)): 11 to 13 h | dose dependence of plasma concentrations ([1]; single dose, 20 to 400 mg): generally increased in a dose-proportional manner | inter-subject variability coefficient of variation of plasma concentrations ([1]; single dose, 20 to 400 mg): < 25% | Mean change from baseline assessment to endpoint for API as measured using the NRS ([2]; 8 weeks after initial treatment administration, up to 600 mg Q12H, n = 135): −1.7 | key secondary objective: efficacy versus placebo, WOMAC pain subscale ([2]; Week 8): did not meet the prespecified threshold | primary objective: efficacy versus placebo, API by weekly average of NRS ([2]; Week 8, osteoarthritic pain): did not meet the prespecified threshold | mean change in pain intensity from baseline assessment to Week 8 using the WOMAC pain subscale ([2]; Week 8, up to 600 mg Q12H, n = 135): −2.6 | differences in thyroid-related TEAEs or thyroid analytes versus placebo (patients): no clinically meaningful differences | tolerability (healthy subjects [3]; Part A 18 and Part B 9 healthy subjects): generally well tolerated | deaths, SAEs, or discontinuations due to AEs (healthy subjects [3]; human, in vivo): No deaths, SAEs, or discontinuations due to AEs have been reported | severity of AEs (healthy subjects [3]; human, in vivo): majority of AEs were of mild severity | deaths or serious adverse events (SAEs) (healthy subjects [4]; SAD and MAD study): No deaths or serious adverse events (SAEs) were reported | severity of adverse events (AEs) (healthy subjects [4]; SAD and MAD study): mild or moderate in severity | tolerability (healthy subjects [4]; SAD and MAD study, 89 healthy subjects): well tolerated | highest PR interval change from baseline in an individual subject (healthy subjects [4]; after the 300-mg dose in MAD): 45 ms | changes in chemistry, hematology, or coagulation parameters (healthy subjects [4]; human, in vivo): no clinically significant changes | mean PR interval increase from baseline (healthy subjects [4]; single 400-mg dose (SAD)): 13 ms
